ChEMBL document CHEMBL4616700, “Novel HIV-1 Protease Inhibitors with Morpholine as the P2 Ligand to Enhance Activity against DRV-Resistant Variants” (ACS Med Chem Lett, 2020)
pEC50, pIC50, pKi: −log10 of the molar value.

Columns and labels:
[1] = test system: Human immunodeficiency virus 1; assay: (§1) Antiviral activity against VSV-G pseudotyped wild type HIV1 NL4-3 in human SupT1 cells infected with supernatants of virus particles extracted from human 293T cells infected with wild type HIV1 NL4-3 incubated for 48 hrs assessed as inhibition of late stage viral infection by single-round infection based luciferase reporter assay; type: functional, organism-based; settings: Human immunodeficiency virus 1, NL4-3, 48 h
[2] = test system: Human immunodeficiency virus 1; assay: Antiviral activity against VSV-G pseudotyped HIV1 NL4-3 in human TZM-bl cells infected with virus particles extracted from human SupT1 cells infected with HIV1 NL4-3 at 10 uM incubated for 48 hrs assessed as inhibition of late stage viral infection by luciferase assay relative to control; type: functional; settings: Human immunodeficiency virus 1, NL4-3, TZM
[3] = test system: Human immunodeficiency virus 1; assay: as §1, with “darunavir-resistant” for “wild type”; type: functional, organism-based; settings: Human immunodeficiency virus 1, NL4-3, 48 h
[4] = test system: Human immunodeficiency virus 1; assay: Potency index, ratio of Darunavir IC50 to compound IC50 for antiviral activity against wild type HIV-1; type: functional
[5] = molecular target: Human immunodeficiency virus type 1 protease (Human immunodeficiency virus 1) (UniProt Q72874); assay: Potency index, ratio of Darunavir Ki to compound Ki for inhibition of wild type HIV1 protease expressed in Escherichia coli using Arg-Glu (EDANS)-Ser-Gln-Asn-Tyr-Pro-Ile-Val-Gln-Lys(DABCYL)-Arg as substrate preincubated for 20 to 30 mins followed by substrate addition and measured for 10 mins by FRET assay
[6] = molecular target: Human immunodeficiency virus type 1 protease (Human immunodeficiency virus 1, UniProt Q72874); assay: Inhibition of wild type HIV1 protease expressed in Escherichia coli using Arg-Glu (EDANS)-Ser-Gln-Asn-Tyr-Pro-Ile-Val-Gln-Lys(DABCYL)-Arg as substrate preincubated for 20 to 30 mins followed by substrate addition and measured for 10 mins by FRET assay
[7] = test system: Human immunodeficiency virus 1; assay: Antiviral activity against VSV-G pseudotyped HIV1 NL4-3 infected in human SupT1 cells assessed as inhibition of early stage viral infection at 10 uM after 48 hrs by luciferase assay relative to control; type: functional; settings: Human immunodeficiency virus 1, NL4-3, SUP-T1, 48 h
[8] = test system: Human immunodeficiency virus 1; assay: Antiviral activity against wild type HIV-1; type: functional, organism-based

Structure (SMILES)	pKi [6]	pIC50 [8]	other results
COc1ccc(S(=O)(=O)N(CC(C)C)C[C@@H](O)[C@H](Cc2ccccc2)NC(=O)OCCN2CCOCC2)cc1	10.05	9.39	pEC50 [1]: 5.92; inhibition at 10 µM [2]: 94%; pEC50 [3]: 5.02; Ratio IC50 [4]: 4; Ratio Ki [5]: 4; inhibition at 10 µM [7]: 5%
CC(C)CN(C[C@@H](O)[C@H](Cc1ccccc1)NC(=O)O[C@H]1CO[C@H]2OCC[C@H]21)S(=O)(=O)c1ccc(N)cc1	–	–	pEC50 [1]: 8.41; inhibition at 10 µM [2]: 100%; pEC50 [3]: 6.62
CC(C)CN(C[C@@H](O)[C@H](Cc1ccccc1)NCCN1CCOCC1)S(=O)(=O)c1ccc(N)cc1	7.02	6.37	–
CC(C)CN(C[C@@H](O)[C@H](Cc1ccccc1)NC(=O)N1CCOCC1)S(=O)(=O)c1ccc(C(F)(F)F)cc1	7.77	7.12	–
CC(C)CN(C[C@@H](O)[C@H](Cc1ccccc1)NCCN1CCOCC1)S(=O)(=O)c1ccc(C(F)(F)F)cc1	6.47	5.82	–
COc1ccc(S(=O)(=O)N(CC(C)C)C[C@@H](O)[C@H](Cc2ccccc2)NC(=O)CN2CCOCC2)cc1	8.13	7.48	–
CC(C)CN(C[C@@H](O)[C@H](Cc1ccccc1)NC(=O)CN1CCO[C@@H](C)C1)S(=O)(=O)c1ccc(C(F)(F)F)cc1	7.03	6.38	–
CC(C)CN(C[C@@H](O)[C@H](Cc1ccccc1)NC(=O)OCCN1CCOCC1)S(=O)(=O)c1ccc(N)cc1	9.07	8.41	–
COc1ccc(S(=O)(=O)N(CC(C)C)C[C@@H](O)[C@H](Cc2ccccc2)NC(=O)CN2CCO[C@H](C)C2)cc1	7.85	7.20	–
COc1ccc(S(=O)(=O)N(CC(C)C)C[C@@H](O)[C@H](Cc2ccccc2)NC(=O)N2CCOCC2)cc1	9.68	9.02	pEC50 [1]: 5.70; inhibition at 10 µM [2]: 91%; pEC50 [3]: 5.31; Ratio IC50 [4]: 2; Ratio Ki [5]: 2; inhibition at 10 µM [7]: 12%
CC(C)CN(C[C@@H](O)[C@H](Cc1ccccc1)NC(=O)N1CCOCC1)S(=O)(=O)c1ccc(N)cc1	8.14	7.49	–
COc1ccc(S(=O)(=O)N(CC(C)C)C[C@@H](O)[C@H](Cc2ccccc2)NCC(=O)N2CCOCC2)cc1	6.53	5.88	–
CC(C)CN(C[C@@H](O)[C@H](Cc1ccccc1)NCC(=O)N1CCOCC1)S(=O)(=O)c1ccc(C(F)(F)F)cc1	6.90	6.25	–
CC(C)CN(C[C@@H](O)[C@H](Cc1ccccc1)NC(=O)CN1CCO[C@@H](C)C1)S(=O)(=O)c1ccc(N)cc1	7.55	6.90	–
COc1ccc(S(=O)(=O)N(CC(C)C)C[C@@H](O)[C@H](Cc2ccccc2)NCCN2CCOCC2)cc1	6.60	5.95	–
COc1ccc(S(=O)(=O)N(CC(C)C)C[C@@H](O)[C@H](Cc2ccccc2)NC[C@H](O)CN2CCOCC2)cc1	6.12	5.82	–
CC(C)CN(C[C@@H](O)[C@H](Cc1ccccc1)NC(=O)CN1CCOCC1)S(=O)(=O)c1ccc(N)cc1	8.07	7.42	–
CC(C)CN(C[C@@H](O)[C@H](Cc1ccccc1)NC(=O)CN1CCO[C@H](C)C1)S(=O)(=O)c1ccc(C(F)(F)F)cc1	7.21	6.56	–
COc1ccc(S(=O)(=O)N(CC(C)C)C[C@@H](O)[C@H](Cc2ccccc2)NC(=O)CN2CCO[C@@H](C)C2)cc1	8.24	7.59	–
CC(C)CN(C[C@@H](O)[C@H](Cc1ccccc1)NC(=O)CN1CCO[C@H](C)C1)S(=O)(=O)c1ccc(N)cc1	7.72	7.07	–
CC(C)CN(C[C@@H](O)[C@H](Cc1ccccc1)NCC(=O)N1CCOCC1)S(=O)(=O)c1ccc(N)cc1	7.64	6.99	–
CC(C)CN(C[C@@H](O)[C@H](Cc1ccccc1)NC[C@H](O)CN1CCOCC1)S(=O)(=O)c1ccc(C(F)(F)F)cc1	6.19	5.82	–
CC(C)CN(C[C@@H](O)[C@H](Cc1ccccc1)NC[C@H](O)CN1CCOCC1)S(=O)(=O)c1ccc(N)cc1	6.70	6.06	–
CC(C)CN(C[C@@H](O)[C@H](Cc1ccccc1)NC(=O)CN1CCOCC1)S(=O)(=O)c1ccc(C(F)(F)F)cc1	8.00	7.35	–
CC(C)CN(C[C@@H](O)[C@H](Cc1ccccc1)NC(=O)OCCN1CCOCC1)S(=O)(=O)c1ccc(C(F)(F)F)cc1	8.65	8.00	–
